Test systems include 786-0 renal; HOP-62 NSCLC; IGROV1 ovarian; M14 melanoma; RXF 393 renal; SF-295 CNS; SNB-75 CNS; UO-31 renal.
Common to all, as to assay: inhibition of tumour cell growth, NCI panel, 48 h

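In this assay, cells in 96-well plates receive the compound at five concentrations for 48 hours. Endpoints are linearly interpolated between the surrounding concentrations. Abbreviation: GI50, concentration required for 50% inhibition of growth. At the TGI there is no net growth.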

Take `CCCCCCNC(=O)Oc1ccc(/C(=C(/C)Cc2ccc(OC)cc2)c2ccc(OCCCN(C)C)cc2)cc1`: the GI50 in the test with 786-0 renal was 13.1 µM; in the test on HOP-62 NSCLC, 18.4 µM; with IGROV1 ovarian, 16.3 µM; with M14 melanoma, 12.3 µM; in the test on RXF 393 renal it was 14.8 µM; in the test on SF-295 CNS, 14.7 µM. The figures for the GI50 in the test on SNB-75 CNS and in the test with UO-31 renal were 12.6 µM and 10.9 µM, respectively. The TGI stood at 28.4 µM in the test on 786-0 renal; 34.2 µM in the test on HOP-62 NSCLC; 32.7 µM with IGROV1 ovarian; 26.1 µM with M14 melanoma; 29.7 µM in the test on RXF 393 renal; 28.3 µM in the test with SF-295 CNS. Further, the TGI in the test with SNB-75 CNS was determined as 25.6 µM; with UO-31 renal, 23.2 µM.

Take `COc1cc(-c2cc(-c3ccc(Nc4ccnc5cc(Cl)ccc45)cc3)nc(N3CCOCC3)n2)cc(OC)c1OC`: the GI50 in the test with 786-0 renal is 2.08 µM; in the test with HOP-62 NSCLC it was 1.95 µM; with IGROV1 ovarian, 1.91 µM; in the test on RXF 393 renal, 1.8 µM; with SF-295 CNS it was 1.95 µM; with SNB-75 CNS, 1.65 µM. The GI50 with UO-31 renal is 1.57 µM. Further, the TGI was 4.81 µM in the test with 786-0 renal; 4.09 µM with HOP-62 NSCLC; 4.03 µM with IGROV1 ovarian; 4.44 µM in the test on RXF 393 renal; 4.12 µM in the test on SF-295 CNS; 3.44 µM with SNB-75 CNS. Also, the TGI in the test on UO-31 renal turned out to be 3.11 µM.

For `N[C@@H]1C(=O)N2C(C(=O)OC(c3ccccc3)c3ccccc3)=C(CCl)CS[C@H]12`, the GI50 in the test on 786-0 renal is 39.3 µM; in the test on HOP-62 NSCLC, 63.4 µM; in the test with IGROV1 ovarian, 47.4 µM; in the test with M14 melanoma, 34.8 µM; in the test on RXF 393 renal, 26.4 µM; in the test with SF-295 CNS, above 94.3 µM. For the same compound, the values for the GI50 with SNB-75 CNS and in the test on UO-31 renal were 47.7 µM and 47.3 µM, respectively. Also, the TGI in the test with 786-0 renal is 98.9 µM; in the test with HOP-62 NSCLC, above 100 µM; in the test on IGROV1 ovarian, above 100 µM; in the test on M14 melanoma it was above 96.2 µM; in the test on RXF 393 renal it was 63.7 µM; in the test with SF-295 CNS, above 100 µM. The TGI in the test with SNB-75 CNS and in the test with UO-31 renal was above 100 µM in each case.

On to `NC1=NC(c2ccc(Cl)cc2)N(c2ccc(S(N)(=O)=O)cc2)C(N)=N1` (stereo unspecified), for which the TGI in the test with 786-0 renal, in the test on HOP-62 NSCLC, with IGROV1 ovarian, with M14 melanoma, in the test with RXF 393 renal and in the test with SF-295 CNS was above 100 µM throughout. The TGI with SNB-75 CNS and in the test on UO-31 renal was above 100 µM in each case.

`FC(F)(F)c1ccc(-c2cnc(-n3cc(COCCN4CCCCC4)nn3)nc2NC2CCCCCC2)cc1`: the GI50 in the test on 786-0 renal is 3.73 µM; in the test on HOP-62 NSCLC it was 4.15 µM; in the test on IGROV1 ovarian, 3.9 µM; in the test on M14 melanoma, 4.34 µM; in the test with RXF 393 renal, 2.51 µM; in the test with SF-295 CNS, 4.85 µM. The GI50 is 2.72 µM in the test with SNB-75 CNS and 2.63 µM in the test on UO-31 renal. The TGI in the test with 786-0 renal amounted to 7.28 µM; with HOP-62 NSCLC it was 8.64 µM; in the test on IGROV1 ovarian, 10.2 µM; with M14 melanoma it was 9.01 µM; in the test with RXF 393 renal, 5.67 µM; in the test on SF-295 CNS it was 9.85 µM. Further, the TGI in the test with SNB-75 CNS was determined as 6.4 µM; in the test on UO-31 renal, 5.97 µM.

With `Cc1cn(C2C=CC(CO)O2)c(=O)[nH]c1=O` (stereo unspecified), the TGI in the test on 786-0 renal, in the test with HOP-62 NSCLC, in the test on IGROV1 ovarian, with M14 melanoma, in the test with SF-295 CNS and in the test with SNB-75 CNS was above 1000 µM throughout. In the test on UO-31 renal, this compound gave a TGI above 1000 µM.

Regarding `Nc1cc(O)ccc1N=Nc1ccc(-c2nc3ccccc3[nH]2)cc1`, the GI50 is 77.2 µM in the test on 786-0 renal; above 100 µM in the test on HOP-62 NSCLC; 19.7 µM with IGROV1 ovarian; above 100 µM with M14 melanoma; 16.8 µM with SF-295 CNS; above 100 µM in the test on SNB-75 CNS. Also, the GI50 with UO-31 renal was 30.5 µM. The TGI with 786-0 renal, in the test with HOP-62 NSCLC, in the test on IGROV1 ovarian, in the test on M14 melanoma, in the test with SF-295 CNS and in the test on SNB-75 CNS was above 100 µM each time. This compound displayed a TGI in the test on UO-31 renal above 100 µM.

In the case of `CC(C)(C)c1ccc(OC(=O)Nc2ccc(O)c(C(=O)O)c2)cc1`, the TGI with 786-0 renal, in the test with HOP-62 NSCLC, in the test on IGROV1 ovarian, in the test with M14 melanoma, with RXF 393 renal and in the test with SF-295 CNS was above 100 µM throughout. In the test with SNB-75 CNS, this compound returned a TGI above 100 µM.

As for `C=C1C(=O)O[C@H]2[C@H]1CC/C(COC(=O)CCSCCC(=O)OC/C1=C/CC[C@@]3(C)O[C@H]3[C@H]3OC(=O)C(=C)[C@@H]3CC1)=C\CC[C@@]1(C)O[C@@H]21`, the GI50 in the test with 786-0 renal was 0.904 µM; with HOP-62 NSCLC, 2.36 µM; in the test on IGROV1 ovarian it was 1.3 µM; in the test on M14 melanoma, 1.52 µM; in the test on RXF 393 renal, 0.767 µM; in the test on SF-295 CNS, 1.77 µM. In addition, in the test with UO-31 renal, the GI50 is 1.07 µM. In addition, the TGI was 2.21 µM in the test with 786-0 renal; 7.94 µM in the test with HOP-62 NSCLC; 3.25 µM in the test with IGROV1 ovarian; 3.35 µM in the test on M14 melanoma; 2.15 µM with RXF 393 renal; 3.94 µM with SF-295 CNS. The compound also displayed a TGI in the test with UO-31 renal of 2.27 µM.

Consider `Clc1ccc(-c2csc(Nc3cccc(-c4csc(-c5ccccc5)n4)c3)n2)cc1`, for which the GI50 is 10.8 µM with 786-0 renal; 10.7 µM with HOP-62 NSCLC; 13.5 µM with IGROV1 ovarian; 11.6 µM in the test on M14 melanoma; 9.89 µM with RXF 393 renal; 15.9 µM in the test with SF-295 CNS. For the same compound, the GI50 in the test on UO-31 renal was 12.4 µM. For the same compound, the TGI was 21.1 µM in the test on 786-0 renal; 22.8 µM in the test with HOP-62 NSCLC; 39 µM with IGROV1 ovarian; 24.1 µM with M14 melanoma; 21.9 µM in the test with RXF 393 renal; above 50 µM in the test on SF-295 CNS. The same compound came in with a TGI with UO-31 renal of 27.4 µM.

In the case of `Oc1ccc(O)c(-c2cc(-c3ccc(Cl)cc3)nn2-c2ccccc2)c1`, the GI50 was 2.21 µM in the test on 786-0 renal; 9.95 µM with IGROV1 ovarian; 2.89 µM in the test with M14 melanoma; 20 µM with SF-295 CNS; 12.2 µM with UO-31 renal. For the same compound, the TGI is 5.4 µM with 786-0 renal; above 100 µM with IGROV1 ovarian; 6.53 µM in the test with M14 melanoma; 39.2 µM with SF-295 CNS; above 100 µM in the test on UO-31 renal.

For the compound `CC(=O)N1N=C(c2ccc(Nc3ccnc4cc(Cl)ccc34)cc2)CC1c1ccc(Cl)cc1` (stereo unspecified), the GI50 in the test with 786-0 renal was above 100 µM; in the test with HOP-62 NSCLC it was above 100 µM; with IGROV1 ovarian it was above 100 µM; in the test on M14 melanoma, 5.24 µM; in the test with RXF 393 renal, 5.07 µM; with SF-295 CNS, 3.58 µM. Also, in the test with UO-31 renal, the GI50 is 3.87 µM. The TGI with 786-0 renal, with HOP-62 NSCLC, in the test with IGROV1 ovarian, with M14 melanoma, in the test on RXF 393 renal and in the test with SF-295 CNS was above 100 µM throughout. This compound also came in with a TGI with UO-31 renal above 100 µM.

Turning to `Cc1cc(S(=O)(=O)/N=C/N(C)C)c(SC(=O)c2ccc(Cl)cc2)cc1Cl`, the GI50 with 786-0 renal is 23.8 µM; with HOP-62 NSCLC it was 41.8 µM; in the test with IGROV1 ovarian it was 38.5 µM; with M14 melanoma, 89.8 µM; in the test with RXF 393 renal, 11.5 µM; in the test with SF-295 CNS it was 50.9 µM. Also, in the test with UO-31 renal, the GI50 is above 100 µM. Moreover, the TGI with 786-0 renal was 67.2 µM; in the test with HOP-62 NSCLC, above 100 µM; in the test on IGROV1 ovarian it was above 100 µM; in the test on M14 melanoma it was above 100 µM; in the test with RXF 393 renal, 35.7 µM; in the test with SF-295 CNS, above 100 µM. In addition, in the test on UO-31 renal, the TGI is above 100 µM.

For `COC(=O)C(=CNC(N)=O)C(=O)OC`, the TGI in the test on 786-0 renal, in the test on HOP-62 NSCLC, with IGROV1 ovarian, in the test with M14 melanoma, in the test with SF-295 CNS and in the test on UO-31 renal was above 100 µM each time.

For `COc1cc(OC)c2nccc(NCCCN(C)C)c2c1[N+](=O)[O-]`, the TGI with 786-0 renal, in the test on HOP-62 NSCLC, in the test on IGROV1 ovarian, in the test with M14 melanoma, with SF-295 CNS and in the test with SNB-75 CNS was above 100 µM each time. In addition, the TGI with UO-31 renal is above 100 µM.

For the compound `CC(=O)c1c(CN(C)c2ccccc2)n([O-])c2ccccc2[n+]1=O`, the GI50 with 786-0 renal is 55 µM; in the test with HOP-62 NSCLC it was 30.7 µM; with IGROV1 ovarian, 45.4 µM; with M14 melanoma, 31.4 µM; in the test on RXF 393 renal it was 21.2 µM; with SNB-75 CNS, 53 µM. In the test with UO-31 renal, the GI50 is 32 µM. Moreover, the TGI with 786-0 renal is above 100 µM; in the test with HOP-62 NSCLC it was above 100 µM; in the test with IGROV1 ovarian, above 100 µM; in the test on M14 melanoma, 80.4 µM; in the test on RXF 393 renal, 62.7 µM; in the test with SNB-75 CNS, above 100 µM. In addition, the TGI in the test with UO-31 renal is above 100 µM.

These data come from PubChem BioAssay (NCI).
